Results reported in patent EP4667458A1 (Kanaph Therapeutics Inc., priority 2023, dated 2024).

target: T1, SOS1 (Homo sapiens, UniProt Q07889); experiment: SOS-catalyzed nucleotide exchange assay (HTRF, SOS1-mediated GTP loading of KRAS G12D); type: biochemical; settings: GST-KRAS G12D, HIS-SOS1cat, EDA-GTP-DY-647P1; compound 128 pM to 10 µM; read-out: SOS-catalyzed nucleotide exchange assay (IC50 range, Grade)
T1 construct: adding equal amounts of HIS-SOS1cat (160 nM; Cytoskeleton, US); His; purchased Cytoskeleton, US
T1 sequence (Q07889 564-1049 limits assumed): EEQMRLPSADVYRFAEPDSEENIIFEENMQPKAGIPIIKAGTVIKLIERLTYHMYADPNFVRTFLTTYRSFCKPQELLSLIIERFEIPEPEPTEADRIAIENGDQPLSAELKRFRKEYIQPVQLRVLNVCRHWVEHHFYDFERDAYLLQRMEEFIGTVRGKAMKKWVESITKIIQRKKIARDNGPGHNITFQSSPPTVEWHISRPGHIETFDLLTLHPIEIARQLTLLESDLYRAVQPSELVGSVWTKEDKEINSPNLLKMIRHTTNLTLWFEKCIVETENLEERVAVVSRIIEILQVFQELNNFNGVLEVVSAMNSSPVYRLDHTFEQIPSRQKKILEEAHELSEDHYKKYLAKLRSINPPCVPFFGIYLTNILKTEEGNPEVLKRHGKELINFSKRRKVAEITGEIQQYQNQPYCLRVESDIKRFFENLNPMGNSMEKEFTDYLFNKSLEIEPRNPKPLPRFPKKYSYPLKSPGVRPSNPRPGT
Description: SOS1 activity was measured by SOS1-mediated GTP loading quantification of KRAS^G12D. GTP-loaded KRAS^G12D was detected by HTRF (Homogeneous Time Resolved Fluorescence) using anti-GST terbium (Cisbio, France) as a donor and a fluorescence GTP analogue (EDA-GTP-DY-647P1, [DY-647P1-labeled 2'/3'-O-(2-aminoethyl-carbamoyl)guanosine-5'-triphosphate (Jena bioscience, Germany)]) as an acceptor.
Assay buffer was composed of 10 mM HEPES pH 7.4, 150 mM NaCl, 5 mM MgCl2, 1 mM DTT, 0.05% BSA Fraction V pH 7.0 (Sigma) and 0.0025% (v/v) Igepal (Sigma). KRAS^G12D working solution was prepared by adding equal amounts of GST-KRAS^G12D (100 nM) and anti-GST-terbium (2 nM; Cisbio, France) to the assay buffer and incubating on ice for 10 minutes. SOS1cat working solution was prepared by adding equal amounts of HIS-SOS1cat (160 nM; Cytoskeleton, US) and EDA-GTP-DY-647P1 (200 nM; Jena bioscience, Germany) to the assay buffer. Control solution was prepared by adding equal volumes of EDA-GTP-DY-647P1 and the assay buffer for normalization control to exclude GEF-independent GTP loading and background signals. In order to induce a reaction, 5 µL of the SOS1cat working solution or the control solution was injected into each well. 5 µL of a compound having various concentrations from 128 pM to 10 µM was added to wells containing the SOS1cat working solution and incubated at room temperature for 10 minutes to bind to SOS1.
10 µL of the KRAS^G12D solution was added to each well and incubated for 30 minutes at room temperature while shaking. HTRF was measured using a Thermo Varioskan (excitation 334 nm, emission 665 nm). The IC50 of each inhibitor was analyzed using Graphad Prism.
The SOS1 inhibitory activity of the Example compounds measured by the above method was evaluated based on the following criteria, and the results are shown in Table 29.

| SMILES | IC50 [nM] |
| --- | --- |
| C[C@@H](NC(=O)c1ccc(=O)n(-c2cccc(NC(=O)C3CC3)c2)c1)c1cc(N)cc(C(F)(F)F)c1 [Example 130, N-[(1R)-1-[3-amino-5-(trifluoromethyl)phenyl]ethyl]-1-(3-cyclopropaneamidophenyl)-6-oxo-1,6-dihydropyridine-3-carboxamide] | < 1000 |
| COc1ccc(-n2nc(C(=O)N[C@H](C)c3cc(N)cc(C(F)(F)F)c3)ccc2=O)cc1OC [Example 36, N-[(1R)-1-[3-amino-5-(trifluoromethyl)phenyl]ethyl]-1-(3,4-dimethoxyphenyl)-6-oxo-pyridazine-3-carboxamide] | < 1000 |
| Cc1ccccc1-n1nc(C(=O)N[C@H](C)c2cc(N)cc(C(F)(F)F)c2)ccc1=O [Example 41, N-[(1R)-1-[3-amino-5-(trifluoromethyl)phenyl]ethyl]-1-(o-tolyl)-6-oxo-pyridazine-3-carboxamide] | < 1000 |
| C[C@@H](NC(=O)c1cc(C2CC2)c(=O)n(-c2ccccc2)n1)c1cc(N)cc(C(F)(F)F)c1 [Example 54, (R)-N-(1-(3-amino-5-(trifluoromethyl)phenyl)ethyl)-5-cyclopropyl-6-oxo-1-phenyl-1,6-dihydropyridazine-3-carboxamide] | < 1000 |
| Cc1ccc(-n2nc(C(=O)N[C@H](C)c3cc(N)cc(C(F)(F)F)c3)ccc2=O)s1 [Example 22, N-[(1R)-1-[3-amino-5-(trifluoromethyl)phenyl]ethyl]-1-(5-methyl-2-thienyl)-6-oxo-pyridazine-3-carboxamide] | < 1000 |
| CC(=O)N1CC=C(n2nc(C(=O)N[C@H](C)c3cc(N)cc(C(F)(F)F)c3)ccc2=O)CC1 [Example 68, 1-(1-acetyl-1,2,3,6-tetrahydropyridin-4-yl)-N-[(1R)-1-[3-amino-5-(trifluoromethyl)phenyl]ethyl]-6-oxo-1,6-dihydropyridazine-3-carboxamide] | < 1000 |
| C[C@@H](NC(=O)c1ccc(=O)n(-c2ccncc2)n1)c1cc(N)cc(C(F)(F)F)c1 [Example 21, N-[(1R)-1-[3-amino-5-(trifluoromethyl)phenyl]ethyl]-6-oxo-1-(4-pyridyl)pyridazine-3-carboxamide] | < 1000 |
| C[C@@H](NC(=O)c1ccc(=O)n(-c2cccc(CO)c2)c1)c1cc(N)cc(C(F)(F)F)c1 [Example 71, N-[(1R)-1-[3-amino-5-(trifluoromethyl)phenyl]ethyl]-1-[3-(hydroxymethyl)phenyl]-6-oxo-1,6-dihydropyridine-3-carboxamide] | < 1000 |
| C[C@@H](NC(=O)c1ccc(=O)n(-c2ccccc2)n1)c1ccc2ccccc2c1 [Example 8, N-[(1R)-1-(2-naphthyl)ethyl]-6-oxo-1-phenyl-pyridazine-3-carboxamide] | 1000 to 10000 |
| C[C@@H](NC(=O)c1ccc(=O)n(-c2ccccc2)n1)c1ccc(Cl)cc1 [Example 5, (R)-N-(1-(4-chlorophenyl)ethyl)-6-oxo-1-phenyl-1,6-dihydropyridazine-3-carboxamide] | > 10000 |
| C[C@@H](NC(=O)c1ccc(=O)n(C2=CCN(S(C)(=O)=O)CC2)n1)c1cc(N)cc(C(F)(F)F)c1 [Example 67, N-[(1R)-1-[3-amino-5-(trifluoromethyl)phenyl]ethyl]-1-(1-methanesulfonyl-1,2,3,6-tetrahydropyridin-4-yl)-6-oxo-1,6-dihydropyridazine-3-carboxamide] | < 1000 |
| C[C@@H](NC(=O)c1ccc(=O)n(-c2ccccc2F)n1)c1cc(N)cc(C(F)(F)F)c1 [Example 46, (R)-N-(1-(3-amino-5-(trifluoromethyl)phenyl)ethyl)-1-(2-fluorophenyl)-6-oxo-1,6-dihydropyridazine-3-carboxamide] | < 1000 |
| C[C@@H](NC(=O)c1ccc(=O)n(-c2cc(F)ccc2F)c1)c1cc(N)cc(C(F)(F)F)c1 [Example 96, N-[(1R)-1-[3-amino-5-(trifluoromethyl)phenyl]ethyl]-1-(2,5-difluorophenyl)-6-oxo-1,6-dihydropyridine-3-carboxamide] | < 1000 |
| C[C@@H](NC(=O)c1ccc(=O)n(-c2ccccc2)n1)c1ccc(S(C)(=O)=O)cc1 [Example 12, N-[(1R)-1-(4-methylsulfonylphenyl)ethyl]-6-oxo-1-phenyl-pyridazine-3-carboxamide] | > 10000 |
| C[C@@H](NC(=O)c1ccc(=O)n(-c2ccccc2)n1)c1cccc(Cl)c1 [Example 1, N-[(1R)-1-(3-chlorophenyl)ethyl]-6-oxo-1-phenyl-pyridazine-3-carboxamide] | 1000 to 10000 |
| C[C@@H](NC(=O)c1ccc(=O)n(-c2ccccc2)n1)c1cccc(C(F)(F)F)c1 [Example 15, 6-oxo-1-phenyl-N-[(1R)-1-[3-(trifluoromethyl)phenyl]ethyl]pyridazine-3-carboxamide] | < 1000 |

Second part, the molecule after the results:

| IC50 [nM] | SMILES |
| --- | --- |
| 1000 to 10000 | COC1CC=C(n2nc(C(=O)N[C@H](C)c3cc(N)cc(C(F)(F)F)c3)ccc2=O)CC1 (stereo partly drawn) [Example 127, N-[(1R)-1-[3-amino-5-(trifluoromethyl)phenyl]ethyl]-1-(4-methoxycyclohex-1-en-1-yl)-6-oxo-1,6-dihydropyridazine-3-carboxamide] |
| 1000 to 10000 | C[C@@H](NC(=O)c1ccc(=O)n(C2CCS(=O)(=O)CC2)n1)c1cc(N)cc(C(F)(F)F)c1 [Example 117, N-[(1R)-1-[3-amino-5-(trifluoromethyl)phenyl]ethyl]-1-(1,1-dioxo-1λ^6-thian-4-yl)-6-oxo-1,6-dihydropyridazine-3-carboxamide] |
| 1000 to 10000 | C[C@@H](NC(=O)c1ccc(=O)n(C2CCCCC2)n1)c1cc(N)cc(C(F)(F)F)c1 [Example 116, N-[(1R)-1-[3-amino-5-(trifluoromethyl)phenyl]ethyl]-1-cyclohexyl-6-oxo-1,6-dihydropyridazine-3-carboxamide] |
| > 10000 | C[C@@H](NC(=O)c1ccc(=O)n(C2C[C@@H]3CC[C@H]2C3)n1)c1cc(N)cc(C(F)(F)F)c1 (stereo partly drawn) [Example 119, N-[(1R)-1-[3-amino-5-(trifluoromethyl)phenyl]ethyl]-1-[(1S,4R)-bicyclo[2.2.1]heptan-2-yl]-6-oxo-1,6-dihydropyridazine-3-carboxamide] |
| 1000 to 10000 | C[C@@H](NC(=O)c1ccc(=O)n(C2CCN(S(C)(=O)=O)CC2)n1)c1cc(N)cc(C(F)(F)F)c1 [Example 120, N-[(1R)-1-[3-amino-5-(trifluoromethyl)phenyl]ethyl]-1-(1-methanesulfonylpiperidin-4-yl)-6-oxo-1,6-dihydropyridazine-3-carboxamide] |
| < 1000 | C[C@@H](NC(=O)c1ccc(=O)n(C2=CCOCC2)n1)c1cc(N)cc(C(F)(F)F)c1 [Example 128, N-[(1R)-1-[3-amino-5-(trifluoromethyl)phenyl]ethyl]-1-(3,6-dihydro-2H-pyran-4-yl)-6-oxo-1,6-dihydropyridazine-3-carboxamide] |
| 1000 to 10000 | C[C@@H](NC(=O)c1ccc(=O)n(C2CCCC2)n1)c1cc(N)cc(C(F)(F)F)c1 [Example 115, N-[(1R)-1-[3-amino-5-(trifluoromethyl)phenyl]ethyl]-1-cyclopentyl-6-oxo-1,6-dihydropyridazine-3-carboxamide] |
| < 1000 | C[C@@H](NC(=O)c1ccc(=O)n(C2=CCN(C)CC2)n1)c1cc(N)cc(C(F)(F)F)c1 [Example 126, N-[(1R)-1-[3-amino-5-(trifluoromethyl)phenyl]ethyl]-1-(1-methyl-1,2,3,6-tetrahydropyridin-4-yl)-6-oxo-1,6-dihydropyridazine-3-carboxamide] |
| 1000 to 10000 | C[C@@H](NC(=O)c1ccc(=O)n(C2=CCCN(S(C)(=O)=O)C2)n1)c1cc(N)cc(C(F)(F)F)c1 [Example 69, N-[(1R)-1-[3-amino-5-(trifluoromethyl)phenyl]ethyl]-1-(1-methanesulfonyl-1,2,5,6-tetrahydropyridin-3-yl)-6-oxo-1,6-dihydropyridazine-3-carboxamide] |
| 1000 to 10000 | C[C@@H](NC(=O)c1ccc(=O)n(C2CC2)n1)c1cc(N)cc(C(F)(F)F)c1 [Example 64, N-[(1R)-1-[3-amino-5-(trifluoromethyl)phenyl]ethyl]-1-cyclopropyl-6-oxo-1,6-dihydropyridazine-3-carboxamide] |
